SMILES strings stand for the structures.

The test system of data set [1] is tumor necrosis factor-alpha (TNF-α) in LPS induced monocytes (THP-1 cells). In words: inhibition of TNF-α secretion in LPS induced monocytes (ELISA). Format: cell-based, human. The note with it: 75 and 100 μg/ml, LPS induced THP-1 cells. As for the experimental part: (§1) Tumor necrosis factor-alpha (TNF-α) and Interleukin-1 beta (IL-1β) are both cytokines (small cell-signalling protein molecules) linked to inflammatory responses. Thus, the present inventors have tested the ability of isolated barettin (designated MCB-011 in the present experiment) to inhibit the secretion of these cytokines in LPS induces monocytes (THP-1 cells).
(§2) THP-1 cells were grown in RPMI-1640 supplemented with gentamycin and FBS and incubated at 37° C. with 5% CO2. To differentiate the monocytes into macrophages, 50 ng/ml PMA was added. Approximately 10^5 cells supplemented with 50 ng/ml PMA were seeded in 96 well plates and incubated at 37° C., 5% CO2 for 48 hours. The cells were controlled using a microscope after 24 h to make sure they had started to differentiate. After 48 h the cells were washed and new RPMI (w/o PMA) added before another 24 h incubation.
(§3) The cells were added 90 μl fresh medium and 10 μl test compound at various concentrations in duplex. After incubation for 1 h, 1 ng/ml LPS was added to all samples except negative controls. Incubation for 6 h at 37° C. followed. The reactions were stopped by freezing the plates at −80° C. immediately after incubation. One day prior to ELISA testing MaxiSorp 96F-well plates were coated with 2 μg/ml capture antibody (Ab) and placed in the refrigerator overnight. […] Results were read at DTX880 at 405 nm.
(An ELISA detects its analyte on a solid surface through an enzyme-linked reagent.)

In data set [2] the test system is Interleukin-1 beta (IL-1β) in LPS induced monocytes (THP-1 cells). In words: inhibition of IL-1β secretion in LPS induced monocytes (ELISA). The note with it: 75 and 100 μg/ml, LPS induced THP-1 cells. Format: cell-based, human. The procedure: as §1, §2, §3
A short description of data set [3]: FRAP (ferric reducing antioxidant power) assay. Particulars: for FRAP value: 30 μg/ml; for FRAP dose-response: FIG. 2. Format: biochemical. As for the experimental part: The inventors used the biochemical assay FRAP (ferric reducing antioxidant power) to obtain an indication of the antioxidant potential of MBC-005 (isolated brominated) and MBC-007 (synthetic de-brominated).
Reagents were prepared according to benzie, I.F.F. et al. Analytical Biochemistry 1996, 239, 70-76 and carried out in a DTX 880 Multimode Detector (Beckman Coulter, Calif., USA) at 595 nm. Trolox (Sigma, 238813) was used to prepare the standard curve (0-250 μM; working concentration). The FRAP reagent (TPTZ (2,4,6-Tris(2-pyridyl)-s-triazine): Fluka, 93285; Fe: Merck 103943) was prepared daily. The assay was carried out in clear 96-well plates, with 20 μl sample and 150 μl FRAP-reagent added to each well in duplicates. Water was used as a blank. Samples were incubated at 37° C. for 30 min before reading the plate. The blank was subtracted from each sample and a standard curve was created from the average absorbance of the duplicated Trolox samples. The equation generated from the standard curve was used to calculate the trolox equivalents (TE) from each sample. Results were expressed as μM TE.

Data set [4] concerns HepG2 cells. Put plainly: cellular lipid peroxidation antioxidant activity (CLPAA) assay. The format is cell-based. The note with it: for activity in CLPAA assay (lipid peroxidation in HepG2 cells): FIG. 4, normalized to positive control CumOOH. As for the experimental part:
HepG2 cells were grown in MEM Earle's medium (F0325) supplemented with gentamycin (10 μg/ml, A2712), non-essential amino acids (1%, K0293), sodium pyruvate (1 mM, L0473), L-alanyl-L-glutamine (2 mM, K0302) and fetal bovine serum (10%, S0115) and incubated at 37° C. with 5% CO2. Media and supplements were from Biochrom (Berlin, Germany).
The inventors used the cellular lipid peroxidation antioxidant activity (CLPAA) assay. This assays measures the intracellular ROS (reactive oxygen species) and membrane antioxidant activity, respectively. The brominated barettin molecule gave a 55% reduction in oxidation compared to the control in the CLPAA assay.
Approximately 80.000 HepG2 cells per well were seeded in black 96 well plates with clear bottom (#3603, Corning, N.Y., USA) and incubated overnight. The cells were labelled with C11-BODIPY (#D3861, Invitrogen, Eugene, Oreg.) for 30 min and incubated for 1 h with various concentrations of the test compounds. Cumene hydroperoxide (cumOOH, #247502, Sigma-Aldrich, St. Louis, Mo.) was added to initiate lipid peroxidation and the plate was immediately placed in a Victor3 Plate Reader (Perkin Elmer, Mass., USA). Both red (590/7 nm (exitation), 632/45 nm (emission)) and green (485/14 nm, 520/10 nm) fluorescence was recorded during ˜1 h. Cells were washed with PBS between additions of new reagents. Total reaction volume was 100 μl. All incubations were carried out at 37° C. with 5% CO2. Percent inhibition was calculated relative to the positive control (cumOOH without test compound).

Data set [5] is described as follows: ORAC (oxygen radical absorbance capacity) assay. Particulars: for ORAC dose-response: FIG. 3. Format: biochemical. The procedure:
The inventors used the biochemical assay ORAC (oxygen radical absorbance capacity) to obtain an indication of the antioxidant potential of MBC-005 (isolated brominated) and MBC-007 (synthetic de-brominated).
The method has been modified from Huang, D. et al., Journal of Agricultural and Food Chemistry 2002, 50, 4437-4444. The assay was carried out in black 96-well plates (Nunc 7350004) and using a Victor3 Plate Reader (Perkin Elmer, Mass., USA) at 37° C. (exitation 486 nm, emission 520 nm). All reagents were dissolved in 75 mM phosphate buffer (PB) (pH 7,4). Different concentrations of the MBC-005 and MBC-007 preparations were added in duplicates followed by addition of 125 μl fluorescein (Fluka, 46960) (52 nM final concentration). After a 15 minute incubation at 37° C., 60 μl AAPH (2,2′-Azobis(2-methylpropionamidine) dihydrochloride; Sigma-Aldrich, 440914) was quickly added to each sample (44 mM final concentration). Fluorescence was recorded 25 times at 37° C. with a 70 sec delay between repeats. Trolox (0-25 μM working concentration) was included in each run to make a standard curve. PB was used as a blank and for the 0 μM Trolox sample. Area under the curve (AUC) was calculated by subtracting the AUCBlank values. A standard curve was created using the Trolox values and Trolox equivalents of the samples were calculated from the resulting equation. Results were expressed as μM TE.

The nature of data set [6]: cytotoxicity of isolated barettin over 72 h (data not shown). Format: cell-based. The source says: MBC-005 and MBC-007 were not toxic to the HepG2 or the MRC5 cells in the concentrations tested (FIG. 6 and FIG. 7). […] This would reveal more long-term damage or whether any toxicity was caused by something other than membrane lysis. […] This was above the concentrations used in the CLPAA assay.

In data set [7] the test system is IL-6 release from THP-1 cells. Put plainly: LPS-induced release of IL-6 from THP-1 cells (ELISA). Format: cell-based, human. The procedure: Monocytes are well-recognised to respond to inflammatory stimuli by releasing a range of cytokines; IL-6 is a highly expressed pro-inflammatory cytokine in activated monocytes. The principle of this assay was to compare the effect of pre-incubating human cells from a monocyte-derived cell line (THP-1) with a known anti-inflammatory drug (dexamethasone; Dex), or a range of concentrations of barettin, on IL-6 generation in response to the inflammatory stimulus, lipopolysaccharide (LPS).
THP-1 cells (Health Protection Agency, Porton Down, UK) were maintained at 37° C. with 5% CO2 in RPMI 1640 containing 10% foetal bovine serum, 2 mM L-glutamine with 100 IU/ml penicillin and 100 μg/ml streptomycin (PAA laboratories Ltd, Yeovil, UK). The cells were grown in suspension and then plated out in 24-well plates at 2×10^5 cells per well.
Treatments: • a. vehicle control (RPMI 1640+0.5% DMSO) • b. 10 μM Dex for 24 h • c. 10 μg/ml LPS for 24 h • d. Pre-treated with 10 μM Dex for 30 min followed by 10 μg/ml lipopolysaccharide LPS for 24 h • e. Pre-treated with barettin at 1, 3, 10, 30 and 100 μg/ml for 30 min followed by 10 μg/ml LPS for 24 h
The concentration of Dex and barettin remained consistent throughout the incubation period; the final DMSO concentration was 0.5%. Cells were incubated at 37° C. and 5% CO2 for 24 hours.
Following incubations, cells and supernatants were harvested into 1.5 ml Eppendorf® tubes and supernatants were cleared of cells and debris by centrifugation at 300 g for 3 min at room temperature. Supernatants were transferred to clean 1.5 ml Eppendorf® tubes and stored at −80° C.
IL-6 expression was measured by ELISA (eBioscience, human IL-6 Platinum ELISA) according to the manufacturer's instructions. Data were collected using a VarioSkan Flash plate reader and Skanit software v2.4.3 (Thermo Fisher Scientific, Basingstoke, UK).

Data set [8] relates to MRC-5 cells (normal human lung fibroblasts). In words: cytotoxicity assay, MRC-5 cells (CellTiter 96 AQueous One Solution). Format: cell-based. The note with it: 24 h exposure, concentrations tested (FIG. 7). As for the experimental part: (§4) Cytotoxicity was tested on HepG2 and MRC-5 cells (normal lung fibroblasts) for 2 h (HepG2) and 24 h (HepG2 and MRC-5) using the CellTiter 96 AQueous One Solution Assay (Promega). MBC-005 and MBC-007 were not toxic to the HepG2 or the MRC5 cells in the concentrations tested (FIG. 6 and FIG. 7). In the CLPAA assays the cells were exposed to the test compounds for 1 h before washed. Thus a 2 h exposure would detect whether the MBC-compounds are likely to cause cell death and false results in the CLPAA assays. MRC5 and HepG2 cells were also exposed to the barettin compounds for 24 h. This would reveal more long-term damage or whether any toxicity was caused by something other than membrane lysis. […] This was above the concentrations used in the CLPAA assay.
(§5) HepG2 and MRC-5 cells were grown in MEM Earle's medium (F0325) supplemented with gentamycin (10 μg/ml, A2712), non-essential amino acids (1%, K0293), sodium pyruvate (1 mM, L0473), L-alanyl-L-glutamine (2 mM, K0302) and fetal bovine serum (10%, S0115) and incubated at 37° C. with 5% CO2. Media and supplements were from Biochrom (Berlin, Germany).
(§6) Cytotoxicity was studied in HepG2 and MRC-5 cells (normal human lung fibroblasts) for 2 h (HepG2) and 24 h (HepG2 and MRC-5). […] Absorbance was measured at 485 nm in a DTX 880 Multimode Detector. Results were calculated as % survival compared to a positive control.

In data set [9] the test system is HepG2 cells. Put plainly: cytotoxicity assay, HepG2 cells (CellTiter 96 AQueous One Solution). The format is cell-based. The note with it: 2 h and 24 h exposure, concentrations tested (FIG. 6). As for the experimental part: as §4, §5, §6

Turning to `N=C(N)NCCC[C@@H]1NC(=O)/C(=C/c2c[nH]c3cc(Br)ccc23)NC1=O` [MBC-011, Barettin], the “inhibition of TNF-α” value in data set [1] is listed as “significant inhibition”. Moreover, the “inhibition of IL-1β” value in data set [2] was “significant inhibition”.
With `O=c1cc(-c2ccc(O)c(O)c2)oc2cc(O)cc(O)c12` [luteolin, reference compound], the FRAP value in data set [3] stood at 151 μM TE.
As for `N=C(N)NCCCC1NC(=O)/C(=C/c2c[nH]c3cc(Br)ccc23)NC1=O` (stereo not drawn) [MBC-005, cyclo-[(6-bromo-8-en-tryptophan)-arginine]], in the data set on HepG2 cells [4], the “activity in CLPAA assay (lipid peroxidation in HepG2 cells)” value was “acts in a dose-dependent manner to reduce lipid peroxidation”. Also, the “reduction in oxidation compared to the control” value with HepG2 cells [4] (HepG2 cells, cumOOH-induced lipid peroxidation) came out at 55%. Also, the “ORAC value (Trolox equivalents)” value in data set [5] (30 μg/ml (71.6 μM)) is listed as 5.5 μM TE. Further, the ORAC dose-response result in data set [5] was “dose-response activity was observed”. The “concentration at which cytotoxicity appears” value in [6] was at least 100 µg/mL. The “effect on LPS-induced generation of IL-6, significance” value in data set [7] (1 μg/ml (~2.4 μN)) was “significant”. Further, the “anti-inflammatory effect versus cytotoxicity” value in data set [7] (30 μg/ml and below) was “genuine anti-inflammatory effect”. Moreover, the “effect on LPS-induced generation of IL-6” value in [7] (1-100 μg/ml, 30 min pre-treatment, 10 μg/ml LPS 24 h) is reported as “clear concentration-dependent effect”. In addition, the “IL-6 expression with compound alone (no LPS)” value in data set [7] (pilot data, THP-1 cells, compound alone) is listed as “did not result in the up-regulation of IL-6 expression”. Also, in [3], the FRAP value was 77 μM TE and the FRAP dose-response result is given as “dose-response activity was observed”. Also, the “cytotoxicity to MRC5 cells” value in data set [8] was “not toxic”. In addition, in the data set on HepG2 cells [9], the “cytotoxicity to HepG2 cells” value is “not toxic”.
For the compound `N=C(N)NCCC[C@@H]1NC(=O)/C(=C/c2c[nH]c3ccccc23)NC1=O` [MBC-007], the “activity in CLPAA assay (lipid peroxidation in HepG2 cells)” value with HepG2 cells [4] (listed as de-brominated synthetic analogue) was “did not show any significant activity”. Besides, the ORAC dose-response result in [5] is “dose-response activity was observed”. Also, the FRAP dose-response result in [3] is “dose-response activity was observed”. In [8], the “cytotoxicity to MRC5 cells” value was “not toxic”. For the same compound, the “cytotoxicity to HepG2 cells” value with HepG2 cells [9] was “not toxic”.

The values above are taken from patent US20160039796A1, “BARETTIN AND DERIVATIVES THEREOF FOR MEDICAL USE, IN PARTICULAR FOR THE TREATMENT OF DISEASES RELATED TO OXIDATIVE STRESS OR INFLAMMATION, AND FOR PRESERVING OR WASHING ORGANS” (ABC Bioscience AS, priority 2013, published 2016).
